From patent US20230116972A1, “CD38 MODULATORS AND METHODS OF USE THEREOF” (Cytokinetics, Inc., priority 2021, published 2023)

Assays:
mouse CD38 = biological target: T1, mouse CD38 (Mus musculus, UniProt P56528); experiment: mouse recombinant CD38 enzyme assay (hydrolysis of NAD+); format: biochemical; settings: read-out: mCD38 BioChem IC50
T1 sequence (P56528 1-304): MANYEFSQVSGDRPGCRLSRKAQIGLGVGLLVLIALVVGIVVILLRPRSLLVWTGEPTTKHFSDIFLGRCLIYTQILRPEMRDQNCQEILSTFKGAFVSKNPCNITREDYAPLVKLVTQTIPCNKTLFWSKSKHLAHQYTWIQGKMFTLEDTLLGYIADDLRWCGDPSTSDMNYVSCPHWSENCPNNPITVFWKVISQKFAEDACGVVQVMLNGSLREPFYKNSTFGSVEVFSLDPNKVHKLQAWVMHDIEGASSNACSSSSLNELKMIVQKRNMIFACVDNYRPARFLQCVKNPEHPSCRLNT
Protocol: (§1) Compounds described herein were assayed for their ability to inhibit the hydrolysis of NAD+ by the protein CD38. The human and mouse recombinant enzyme assays measure the inhibition of the enzyme activity by compounds using recombinant enzymes and substrates in a buffered cell-free system. The assay conditions closely mimic cellular environments. Dose responses were measured using an assay to detect the hydrolysis of NAD+. All experiments were performed in the 384-well format. […] Enzyme reactions were initiated with the addition of 10 μL of a solution containing NAD+ substrate. Subsequent detection of remaining NAD+ was determined by first converting NAD+ to NADH using alcohol dehydrogenase, then using the resulting NADH to reduce resazurine to the fluorescent product resorufin. […] Following an incubation of 60 min at ambient temperature, 10 μL of 120 mM ethanol+20 U/ml alcohol dehydrogenase+30 mM semicarbazide+0.03 mM CD38 inhibitor in 50 mM HEPES, pH 7.5, 0.2 mg/ml BSA, was added and incubated at ambient temperature for 15 min. Then 10 μl 0.32 mM NaOH was added to stop the ADH reaction (plates incubated at ambient temperature for 15 min), followed by 30 μL of 0.05 mM resazurine+1000 mU/ml Diaphorase in 200 mM Tris-HCl, pH 7.7 for 15 min at ambient temperature. The plates were read for fluorescence (Excitation/Emission=540 nm/590 nm) using an EnVision plate reader. […] Note that, in Table 4, the “Compound No” corresponds to the compound numbers in Table 1.

human CD38 = biological target: T2, human CD38 (Homo sapiens, UniProt P28907); experiment: human recombinant CD38 enzyme assay (hydrolysis of NAD+); format: biochemical; settings: human recombinant CD38, 0.4 nM enzyme, 62.5 μM NAD+; read-out: hCD38 BioChem IC50
T2 sequence (P28907 1-300): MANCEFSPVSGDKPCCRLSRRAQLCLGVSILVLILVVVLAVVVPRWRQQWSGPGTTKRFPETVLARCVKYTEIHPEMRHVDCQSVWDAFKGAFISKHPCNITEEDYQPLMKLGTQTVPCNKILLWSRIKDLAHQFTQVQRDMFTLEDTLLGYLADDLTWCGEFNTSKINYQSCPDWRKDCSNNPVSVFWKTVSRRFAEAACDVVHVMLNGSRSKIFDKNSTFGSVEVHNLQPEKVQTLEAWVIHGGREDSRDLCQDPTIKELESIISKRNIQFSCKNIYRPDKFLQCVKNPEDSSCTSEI
Protocol: as §1

Row | IC50 (mouse CD38) [nM] | IC50 (human CD38) [nM] | SMILES
1 | 166 | 569 | CO[C@H]1CC[C@H](NC(=O)c2ccnc(-c3cncs3)n2)CC1 [Compound 113, N-((1r,4r)-4-methoxycyclohexyl)-2-(thiazol-5-yl)pyrimidine-4-carboxamide]
2 | 10.6 | 22.1 | Cn1cncc1-c1ncc(Cl)c(C(=O)N[C@H]2CC[C@H](OC(F)F)CC2)n1 [Compound 323, 5-chloro-N-((1r,4r)-4-(difluoromethoxy)cyclohexyl)-2-(1-methyl-1H-imidazol-5-yl)pyrimidine-4-carboxamide]
3 | 62.4 | 485 | Cn1cncc1-c1ccnc(C(=O)N[C@H]2CC[C@H](O)C2)n1 [Compound 305, N-((1S,3S)-3-hydroxycyclopentyl)-4-(1-methyl-1H-imidazol-5-yl)pyrimidine-2-carboxamide]
4 | 66 | 312 | O=C(Nc1ccc(C(F)(F)F)nc1)c1cc(C2CC2)nc(-c2cncs2)n1 [Compound 109, 6-cyclopropyl-2-(thiazol-5-yl)-N-(6-(trifluoromethyl)pyridin-3-yl)pyrimidine-4-carboxamide]
5 | 494 | 1260 | O=C(Nc1ccc(C(F)(F)F)nc1)c1cc(C(F)(F)F)nc(-c2cncs2)n1 [Compound 115, 2-(thiazol-5-yl)-6-(trifluoromethyl)-N-(6-(trifluoromethyl)pyridin-3-yl)pyrimidine-4-carboxamide]
6 | 1.3 | 12.3 | Cn1cncc1-c1nc(C(=O)Nc2ccc(C(C)(C)O)nc2)cc(C2CCC(F)(F)CC2)n1 [Compound 336, 6-(4,4-difluorocyclohexyl)-N-(6-(2-hydroxypropan-2-yl)pyridin-3-yl)-2-(1-methyl-1H-imidazol-5-yl)pyrimidine-4-carboxamide]
7 | 267 | 676 | COCCO[C@@H]1CC[C@@H](NC(=O)c2nccc(-c3cncn3C)n2)C1 [Compound 351, N-((1R,3R)-3-(2-methoxyethoxy)cyclopentyl)-4-(1-methyl-1H-imidazol-5-yl)pyrimidine-2-carboxamide]
8 | 10 | 4.3 | COc1ccc(NC(=O)c2nccc(-c3cncn3C)n2)cn1 [Compound 356, N-(6-methoxypyridin-3-yl)-4-(1-methyl-1H-imidazol-5-yl)pyrimidine-2-carboxamide]
9 | 84 | 841 | CO[C@H]1CC[C@H](NC(=O)c2cc(O)nc(-n3ccnc3)n2)CC1 [Compound 126, 6-hydroxy-2-(1H-imidazol-1-yl)-N-((1r,4r)-4-methoxycyclohexyl)pyrimidine-4-carboxamide]
10 | 244 | 1210 | O=C(Nc1cccnc1)c1cc(C(F)(F)F)cc(-c2cncs2)n1 [Compound 41, N-(pyridin-3-yl)-6-(thiazol-5-yl)-4-(trifluoromethyl)picolinamide]
11 | 13.6 | 24.3 | Cn1cncc1-c1ccnc(C(=O)N[C@H]2CC[C@H](OCC(F)(F)F)CC2)n1 [Compound 343, 4-(1-methyl-1H-imidazol-5-yl)-N-((1r,4r)-4-(2,2,2-trifluoroethoxy)cyclohexyl)pyrimidine-2-carboxamide]
12 | 203 | 933 | COCCO[C@H]1C[C@H](NC(=O)c2nccc(-c3cncn3C)n2)C1 [Compound 222, N-((1r,3r)-3-(2-methoxyethoxy)cyclobutyl)-4-(1-methyl-1H-imidazol-5-yl)pyrimidine-2-carboxamide]
13 | 105 | 833 | O=C(N[C@H]1C[C@@H](c2ccccc2)C1)c1nccc(-n2ccnc2)n1 [Compound 212, 4-(1H-imidazol-1-yl)-N-((1s,3s)-3-phenylcyclobutyl)pyrimidine-2-carboxamide]
14 | 33 | 711 | CO[C@H]1CC[C@H](NC(=O)c2cc(C3CC3)nc(-c3cncs3)n2)CC1 [Compound 108, 6-Cyclopropyl-N-((1r,4r)-4-methoxycyclohexyl)-2-(thiazol-5-yl)pyrimidine-4-carboxamide]
15 | 1970 | 2040 | O=C(Nc1ccc(C(F)(F)F)nc1)c1cccc(-n2cnnc2)n1 [Compound 143, 6-(4H-1,2,4-triazol-4-yl)-N-(6-(trifluoromethyl)pyridin-3-yl)picolinamide]
16 | 19.3 | 29.8 | Cn1cncc1-c1ncc(Cl)c(C(=O)N[C@H]2CC[C@H](OC(F)(F)F)CC2)n1 [Compound 325, 5-chloro-2-(1-methyl-1H-imidazol-5-yl)-N-((1r,4r)-4-(trifluoromethoxy)cyclohexyl)pyrimidine-4-carboxamide]
17 | 135 | 1730 | CO[C@H]1CC[C@H](NC(=O)c2cc(C)cc(-c3cncs3)n2)CC1 [Compound 133, N-(4-methoxycyclohexyl)-4-methyl-6-(thiazol-5-yl)picolinamide]
18 | 3200 | 905 | NC(=O)c1cn(-c2cccc(C(=O)Nc3ccc(C(F)(F)F)nc3)n2)cn1 [Compound 76, 6-(4-carbamoyl-1H-imidazol-1-yl)-N-(6-(trifluoromethyl)pyridin-3-yl)picolinamide]
19 | 3.4 | 12.8 | CO[C@H]1CC[C@H](NC(=O)c2nc(-c3cncn3C)ncc2F)CC1 [Compound 333, 5-fluoro-N-((1r,4r)-4-methoxycyclohexyl)-2-(1-methyl-1H-imidazol-5-yl)pyrimidine-4-carboxamide]
20 | 20.6 | 25.4 | COCCO[C@@H]1CC[C@@H](NC(=O)c2cc(C3CCOCC3)nc(-c3cncn3C)n2)C1 [Compound 352, N-((1R,3R)-3-(2-methoxyethoxy)cyclopentyl)-2-(1-methyl-1H-imidazol-5-yl)-6-(tetrahydro-2H-pyran-4-yl)pyrimidine-4-carboxamide]
21 | 90.8 | 414 | CO[C@H]1C[C@H](NC(=O)c2nccc(-c3cncn3C)n2)C1 [Compound 297, N-((1r,3r)-3-methoxycyclobutyl)-4-(1-methyl-1H-imidazol-5-yl)pyrimidine-2-carboxamide]
22 | 1 | 2.5 | Cn1cncc1-c1nc(C(=O)Nc2ccc(C(F)F)nc2)cc(C2CC3(COC3)C2)n1 [Compound 348, N-(6-(difluoromethyl)pyridin-3-yl)-2-(1-methyl-1H-imidazol-5-yl)-6-(2-oxaspiro[3.3]heptan-6-yl)pyrimidine-4-carboxamide]
23 | 2.9 | 19.9 | Cn1cncc1-c1nc(C(=O)Nc2ccc(OC(F)F)nc2)cc(C2CCC(F)(F)CC2)n1 [Compound 342, 6-(4,4-difluorocyclohexyl)-N-(6-(difluoromethoxy)pyridin-3-yl)-2-(1-methyl-1H-imidazol-5-yl)pyrimidine-4-carboxamide]
24 | 218 | 949 | CC(C)O[C@H]1C[C@H](NC(=O)c2nccc(-c3cncn3C)n2)C1 [Compound 320, N-((1r,3r)-3-isopropoxycyclobutyl)-4-(1-methyl-1H-imidazol-5-yl)pyrimidine-2-carboxamide]
25 | 855 | 1440 | O=C(Nc1ccc(C(F)(F)F)nc1)c1cccc(-c2cncs2)n1 [Compound 50, 6-(thiazol-5-yl)-N-(6-(trifluoromethyl)pyridin-3-yl)picolinamide]
26 | 327 | 708 | Cn1cncc1-c1ccnc(C(=O)N[C@H]2C[C@@H](c3ccnc(C(F)(F)F)c3)C2)n1 [Compound 266, 4-(1-methyl-1H-imidazol-5-yl)-N-((1s,3s)-3-(2-(trifluoromethyl)pyridin-4-yl)cyclobutyl)pyrimidine-2-carboxamide]
27 | 13.5 | 28.7 | Cc1cnc(-c2cncn2C)nc1C(=O)N[C@H]1CC[C@H](OC(F)F)CC1 [Compound 335, N-((1r,4r)-4-(difluoromethoxy)cyclohexyl)-5-methyl-2-(1-methyl-1H-imidazol-5-yl)pyrimidine-4-carboxamide]
28 | 67.9 | 490 | Cn1cncc1-c1ccnc(C(=O)NC2CCC(C)(C)OC2)n1 (centres unmarked) [Compound 278, N-(6,6-dimethyltetrahydro-2H-pyran-3-yl)-4-(1-methyl-1H-imidazol-5-yl)pyrimidine-2-carboxamide]
